Biological target: human Nav1.7 (Homo sapiens (Human), UniProt Q15858)
Test: FLIPR or FLIPR TETRA sodium dye assay for sodium channel blocking activity
Type: cell-based
Conditions: recombinant HEK293 cells expressing human Nav1.7
Experimental: In vitro assays were performed in a recombinant cell line expressing cDNA encoding the alpha subunit (Nav1.7, SCN9a, PN1, NE) of human Nav1.7 (Accession No. NM_002977). The cell line was provided by investigators at Yale University (Cummins et al, J. Neurosci. 18(23): 9607-9619 (1998)). For dominant selection of the Nav1.7-expressing clones, the expression plasmid co-expressed the neomycin resistance gene. The cell line was constructed in the human embryonic kidney cell line, HEK293, under the influence of the CMV […] promoter, and stable clones were selected using limiting dilution cloning and antibiotic selection using the neomycin analogue, G418. Recombinant beta and gamma subunits were not introduced into this cell line. Additional cell lines expressing recombinant Nav1.7 cloned from other species can also be used, alone or in combination with various beta subunits, gamma subunits or chaperones.
Unless otherwise noted, cell culture reagents were purchased from Mediatech of Herndon, Va. The recombinant Nav1.7/HEK293 cells were routinely cultured in growth medium consisting of Dulbecco's […] essential medium containing 10% fetal bovine serum (FBS, Hyclone, Thermo Fisher Scientific, Logan, Utah), 100 U/mL penicillin, 100 μg/mL streptomycin, 2-4 mM L-glutamine, and […] G418. For natural, non-recombinant cell lines, the selective antibiotic was omitted, and additional media formulations can be applied as needed.
The final buffer consisted of 20 mM Hepes, pH 7.3, 1.261 mM CaCl2, 0.493 mM MgCl2, 0.407 mM Mg(SO)4, 5.33 mM KCl, 0.441 mM KH2PO4, 137 mM NaCl, 0.336 mM Na2HPO4 and […] D-glucose (Hanks et al., Proc. Soc. Exp. Biol. Med. 71:196 (1949)), and the simple formulation was typically the basic buffer throughout the assay (i.e., all wash and addition steps).
The fluorescence indicator used in the primary fluorescence assay was the cell permeant version of CoroNa™ Green (Invitrogen, Molecular Probes, Eugene, Oreg.), a dye that emits light in the fluorescence range (Harootunian et al., J. Biol. Chem. 264(32):19458-19467 (1989)). The intensity of this emission, but not the wavelength range, is increased when the dye is exposed to Na^+ ions, which it can bind with partial selectivity. Cells expressing Nav1.7 or other sodium channels were loaded with the CoroNa™ Green dye immediately in advance of the fluorescence assay, and then, after agonist stimulation, the mobilization of Na^+ ions was detected as the Na^+ ions flowed from the extracellular fluid into the cytoplasm through the activated sodium channel pores. The dye was stored in the dark as a lyophilized powder, and then an aliquot was dissolved immediately before the cell loading procedure, according to the instructions of the manufacturer, to a stock concentration of 10 mM in DMSO. It was then diluted in the assay buffer to a 4× concentrated working solution, so that the final concentration of dye in the cell loading buffer was 5 μM.
In the fluorescence assays, two agonists were used in combination, namely 1) veratridine; and 2) the venom from the yellow scorpion, Leiurus quinquestriatus hebraeus. Veratridine is an alkaloid small molecule that facilitates the capture of channel openings by inhibiting inactivation, and the scorpion venom is a natural preparation that includes peptide toxins selective for different subsets of voltage-gated sodium channels. These scorpion toxins inhibit the fast inactivation of their cognate target channels. Stock solutions of the agonists were prepared to 40 mM in DMSO (veratridine) and 1 mg/mL in dH2O (scorpion venom), and then diluted to make a 4× or 2× stock (depending on the particular assay) in assay buffer, the final concentration being 100 μM (veratridine) and 10 μg/mL (scorpion venom). Both of the agonists were purchased from Sigma Aldrich, St. Louis, Mo.
Test compounds were dissolved in DMSO to yield 10 mM stock solutions. […]

Sequence of human Nav1.7 (Q15858 other isoform, or with tags, fused parts or gaps): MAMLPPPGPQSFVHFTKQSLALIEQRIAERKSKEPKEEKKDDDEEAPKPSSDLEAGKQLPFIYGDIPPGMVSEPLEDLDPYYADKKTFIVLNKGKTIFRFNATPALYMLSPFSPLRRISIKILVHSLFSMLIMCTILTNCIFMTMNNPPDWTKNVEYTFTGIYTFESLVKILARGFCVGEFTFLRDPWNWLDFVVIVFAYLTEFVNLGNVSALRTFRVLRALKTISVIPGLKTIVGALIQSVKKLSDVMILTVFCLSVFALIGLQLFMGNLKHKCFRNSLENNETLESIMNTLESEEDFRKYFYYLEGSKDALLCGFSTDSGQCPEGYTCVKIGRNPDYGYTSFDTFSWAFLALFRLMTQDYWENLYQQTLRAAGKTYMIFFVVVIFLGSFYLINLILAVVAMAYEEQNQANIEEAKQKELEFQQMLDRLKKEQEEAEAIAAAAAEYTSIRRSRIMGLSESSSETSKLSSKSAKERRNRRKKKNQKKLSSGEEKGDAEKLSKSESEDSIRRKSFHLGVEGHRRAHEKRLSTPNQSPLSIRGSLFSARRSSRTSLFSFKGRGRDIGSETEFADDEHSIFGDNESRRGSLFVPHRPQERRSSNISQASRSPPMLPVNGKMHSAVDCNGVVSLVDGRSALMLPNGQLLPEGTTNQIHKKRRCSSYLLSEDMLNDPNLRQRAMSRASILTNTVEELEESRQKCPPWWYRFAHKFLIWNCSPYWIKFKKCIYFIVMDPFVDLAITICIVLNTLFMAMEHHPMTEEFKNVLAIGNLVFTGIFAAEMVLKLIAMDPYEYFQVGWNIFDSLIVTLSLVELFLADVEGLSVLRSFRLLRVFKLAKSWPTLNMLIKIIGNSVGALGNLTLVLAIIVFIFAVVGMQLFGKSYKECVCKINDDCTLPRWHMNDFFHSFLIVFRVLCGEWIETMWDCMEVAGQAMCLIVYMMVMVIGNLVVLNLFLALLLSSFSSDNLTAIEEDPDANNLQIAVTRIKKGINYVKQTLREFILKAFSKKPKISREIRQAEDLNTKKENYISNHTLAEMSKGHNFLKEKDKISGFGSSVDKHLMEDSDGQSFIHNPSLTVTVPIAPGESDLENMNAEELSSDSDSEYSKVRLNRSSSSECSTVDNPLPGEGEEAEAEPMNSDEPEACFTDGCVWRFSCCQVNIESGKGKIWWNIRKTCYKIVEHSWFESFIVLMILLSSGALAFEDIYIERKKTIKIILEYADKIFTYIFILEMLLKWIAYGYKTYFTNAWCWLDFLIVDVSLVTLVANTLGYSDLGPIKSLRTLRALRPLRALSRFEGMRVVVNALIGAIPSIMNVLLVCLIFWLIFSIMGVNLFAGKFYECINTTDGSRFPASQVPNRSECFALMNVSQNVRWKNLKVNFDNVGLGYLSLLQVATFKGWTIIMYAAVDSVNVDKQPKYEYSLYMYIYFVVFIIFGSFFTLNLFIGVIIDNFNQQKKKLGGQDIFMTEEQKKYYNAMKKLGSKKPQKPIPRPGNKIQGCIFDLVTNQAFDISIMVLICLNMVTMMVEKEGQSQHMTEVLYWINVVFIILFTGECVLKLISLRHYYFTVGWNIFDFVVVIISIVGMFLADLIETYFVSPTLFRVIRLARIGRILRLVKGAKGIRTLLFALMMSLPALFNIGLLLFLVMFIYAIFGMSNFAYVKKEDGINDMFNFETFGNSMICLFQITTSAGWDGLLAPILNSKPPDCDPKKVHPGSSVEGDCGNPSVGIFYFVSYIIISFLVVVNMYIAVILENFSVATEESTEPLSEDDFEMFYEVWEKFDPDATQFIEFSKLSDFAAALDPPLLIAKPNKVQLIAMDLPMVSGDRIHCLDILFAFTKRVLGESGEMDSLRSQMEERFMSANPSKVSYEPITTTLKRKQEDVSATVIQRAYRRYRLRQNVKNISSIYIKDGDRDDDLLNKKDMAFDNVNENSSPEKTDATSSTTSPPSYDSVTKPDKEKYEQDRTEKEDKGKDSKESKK

`NC(=O)c1cccc(-c2ccc3c(ccn3S(=O)(=O)C3CCCCC3)c2)n1` [Compound 59, 6-(1-(cyclohexylsulfonyl)-1H-indol-5-yl)picolinamide] and `NC(=O)c1cccc(-c2ccc3c(ccn3CCC3CCCCC3)c2)n1` [Compound 63, 6-(1-(2-cyclohexylethyl)-1H-indol-5-yl)picolinamide] are within error of each other in IC50: 0.927 ± 0.05 µM for the first, 1.12 ± 0.182 µM for the second.

`C[C@H](Nc1cc(C(N)=O)nc(-c2ccc3c(ccn3CC3CCCCC3)c2)n1)C(N)=O` [Compound 113, (S)-6-((1-amino-1-oxopropan-2-yl)amino)-2-(1-(cyclohexylmethyl)-1H-indol-5-yl)pyrimidine-4-carboxamide] and `CC(C)Cn1ccc2cc(-c3nc(N[C@@H](C)C(N)=O)cc(C(N)=O)n3)ccc21` [Compound 47, (S)-6-((1-amino-1-oxopropan-2-yl)amino)-2-(1-isobutyl-1H-indol-5-yl)pyrimidine-4-carboxamide] are within error of each other in IC50: 4.43 ± 0.541 µM for the first, 4.19 ± 0.862 µM for the second.

Compared with `O=C(NC1CCCC1)c1cccc(-c2ccc3[nH]ccc3c2)n1` [Compound 85, N-cyclopentyl-6-(1H-indol-5-yl)picolinamide], `O=C(Nc1ccc(C(F)(F)F)cc1)c1cccc(-c2ccc3[nH]ccc3c2)n1` [Compound 32, 6-(1H-indol-5-yl)-N-(4-(trifluoromethyl)phenyl)picolinamide] is 5.2-fold lower in IC50: 1.21 ± 0.242 µM for the first, 0.233 ± 0.035 µM for the second.

`NC(=O)c1cccc(-c2ccc3c(c2)c(C(N)=O)cn3Cc2ccc(C(F)(F)F)cc2)n1` [Compound 142, 5-(6-carbamoylpyridin-2-yl)-1-(4-(trifluoromethyl)benzyl)-1H-indole-3-carboxamide] and `C[C@H](NC(=O)c1cn(Cc2ccc(C(F)(F)F)cc2)c2ccc(-c3cccc(C(N)=O)n3)cc12)C(N)=O` [Compound 143, (S)-N-(1-amino-1-oxopropan-2-yl)-5-(6-carbamoylpyridin-2-yl)-1-(4-(trifluoromethyl)benzyl)-1H-indole-3-carboxamide] cannot be ordered by IC50: over 20 µM for the first, over 20 µM for the second.

Going from `O=C(c1cccc(-c2ccc3[nH]ccc3c2)n1)N(c1ccc(C(F)(F)F)cc1)c1ccc(C(F)(F)F)cc1` [Compound 33, 6-(1H-indol-5-yl)-N,N-bis(4-(trifluoromethyl)phenyl)picolinamide] to `NC(=O)c1cccc(-c2ccc3c(ccn3Cc3ccc(C(F)(F)F)cc3)c2)n1` [Compound 56, 6-(1-(4-(trifluoromethyl)benzyl)-1H-indol-5-yl)picolinamide], the IC50 falls from over 20 µM to 0.23 ± 0.026 µM.

`COc1ccc(-c2nc3cc(-c4nc(N[C@H]5CCNC5=O)cc(C(N)=O)n4)ccc3n2-c2ccc(F)cc2)c(OC)c1` [Compound 42, (S)-2-(2-(2,4-dimethoxyphenyl)-1-(4-fluorophenyl)-1H-benzo[d]imidazol-5-yl)-6-((2-oxopyrrolidin-3-yl)amino)pyrimidine-4-carboxamide] and `NC(=O)c1cccc(-c2ccc3c(c2)c(CN[C@H]2CCNC2=O)cn3Cc2ccc(C(F)(F)F)cc2)n1` [Compound 144, (S)-6-(3-(((2-oxopyrrolidin-3-yl)amino)methyl)-1-(4-(trifluoromethyl)benzyl)-1H-indol-5-yl)picolinamide] are within 1.5-fold of each other in IC50: 2.02 ± 0.146 µM for the first, 2.54 ± 0.181 µM for the second.

First: N#Cc1cc([C@@H](O)CO)cc(-c2ccc3c(ccn3Cc3ccc(C(F)(F)F)cc3)c2)n1 [Compound 119, (R)-4-(1,2-dihydroxyethyl)-6-(1-(4-(trifluoromethyl)benzyl)-1H-indol-5-yl)picolinonitrile]
Second: OC[C@@H](O)c1cccc(-c2ccc3c(ccn3Cc3ccc(C(F)(F)F)cc3)c2)n1 [Compound 109, (S)-1-(6-(1-(4-(trifluoromethyl)benzyl)-1H-indol-5-yl)pyridin-2-yl)ethane-1,2-diol]
The IC50 of the first is 29-fold higher: 5.09 ± 0.356 µM for the first, 0.177 ± 0.005 µM for the second. The second is the more potent here.

`NC(=O)c1c[nH]c2ccc(-c3cccc(C(=O)Nc4ccc(C(F)(F)F)cc4)n3)cc12` [Compound 140, 5-(6-((4-(trifluoromethyl)phenyl)carbamoyl)pyridin-2-yl)-1H-indole-3-carboxamide] and `NC(=O)CC[C@H](NC(=O)c1c[nH]c2ccc(-c3cccc(C(=O)Nc4ccc(C(F)(F)F)cc4)n3)cc12)C(N)=O` [Compound 141, (S)-2-(5-(6-((4-(trifluoromethyl)phenyl)carbamoyl)pyridin-2-yl)-1H-indole-3-carboxamido)pentanediamide] cannot be ordered by IC50: over 20 µM for the first, over 20 µM for the second.

`Nc1cc(C(=O)Nc2ccc(C(F)(F)F)cc2)nc(-c2ccc3occc3c2)n1` [Compound 138, 6-amino-2-(benzofuran-5-yl)-N-(4-(trifluoromethyl)phenyl)pyrimidine-4-carboxamide] and `O=C(Nc1ccc(C(F)(F)F)cc1)c1cc(N[C@H]2CCNC2=O)cc(-c2ccc3[nH]ccc3c2)n1` [Compound 88, (S)-6-(1H-indol-5-yl)-4-((2-oxopyrrolidin-3-yl)amino)-N-(4-(trifluoromethyl)phenyl)picolinamide] are within error of each other in IC50: 3.66 ± 2.4 µM for the first, 4.89 ± 0.388 µM for the second.

Compared with `NC(=O)c1cccc(-c2ccc3c(ccn3Cc3ccc(F)cc3)c2)n1` [Compound 61, 6-(1-(4-fluorobenzyl)-1H-indol-5-yl)picolinamide], `Cc1ccc(Cn2ccc3cc(-c4cccc(C(N)=O)n4)ccc32)cc1` [Compound 62, 6-(1-(4-methylbenzyl)-1H-indol-5-yl)picolinamide] is higher in IC50: 0.801 ± 0.052 µM for the first, over 20 µM for the second. The first is the more potent here.

First: Cn1cc(-c2cccc(C(F)(F)F)c2)c2cc(-c3cccc(C(N)=O)n3)ccc21 [Compound 129, 6-(1-methyl-3-(3-(trifluoromethyl)phenyl)-1H-indol-5-yl)picolinamide]
Second: Cn1cc(-c2ccc(C(F)(F)F)cc2)c2cc(-c3cccc(C(N)=O)n3)ccc21 [Compound 130, 6-(1-methyl-3-(4-(trifluoromethyl)phenyl)-1H-indol-5-yl)picolinamide]
The IC50 of the first is lower: 10 to 20 µM for the first, over 20 µM for the second. The first is the more potent here.

`O=S(=O)(N1CCCCC1)n1ccc2cc(-c3cccc([C@H](O)CO)n3)ccc21` [Compound 111, (S)-1-(6-(1-(piperidin-1-ylsulfonyl)-1H-indol-5-yl)pyridin-2-yl)ethane-1,2-diol] and `NC(=O)c1cccc(-c2ccc3c(ccn3S(=O)(=O)c3ccc(C(F)(F)F)cc3)c2)n1` [Compound 57, 6-(1-((4-(trifluoromethyl)phenyl)sulfonyl)-1H-indol-5-yl)picolinamide] are within error of each other in IC50: 0.716 ± 0.073 µM for the first, 0.658 ± 0.078 µM for the second.

`CC(C)Cn1ccc2cc(-c3cc([C@H](O)CO)cc(C(N)=O)n3)ccc21` [Compound 124, (S)-4-(1,2-dihydroxyethyl)-6-(1-isobutyl-1H-indol-5-yl)picolinamide] and `CC(C)Cn1ccc2cc(-c3cc(C(N)=O)nc([C@H](O)CO)c3)ccc21` [Compound 126, (S)-6-(1,2-dihydroxyethyl)-4-(1-isobutyl-1H-indol-5-yl)picolinamide] are within error of each other in IC50: 4.92 ± 0.7 µM for the first, 5.91 ± 0.536 µM for the second.

Compared with `NC(=O)c1cc(O[C@H]2CCNC2=O)nc(-c2ccc3[nH]ccc3c2)n1` [Compound 37, (S)-2-(1H-indol-5-yl)-6-((2-oxopyrrolidin-3-yl)oxy)pyrimidine-4-carboxamide], `Cc1nc(Cn2ccc3cc(-c4cccc(C(N)=O)n4)ccc32)cs1` [Compound 68, 6-(1-((2-methylthiazol-4-yl)methyl)-1H-indol-5-yl)picolinamide] is lower in IC50: over 20 µM for the first, 10 to 20 µM for the second.

Going from `NC(=O)c1cc(-c2ccc3c(ccn3Cc3ccc(C(F)(F)F)cc3)c2)cc([C@@H](O)CO)n1` [Compound 122, (R)-6-(1,2-dihydroxyethyl)-4-(1-(4-(trifluoromethyl)benzyl)-1H-indol-5-yl)picolinamide] to `OC[C@H](O)c1ccnc(-c2ccc3ncn(-c4ccc(C(F)(F)F)cc4)c3c2)n1` [Compound 50, (R)-1-(2-(1-(4-(trifluoromethyl)phenyl)-1H-benzo[d]imidazol-6-yl)pyrimidin-4-yl)ethane-1,2-diol], the IC50 rises from 1.74 ± 0.214 µM to over 20 µM.

From patent US10730866B2, “Indole derivatives and use thereof” (Purdue Pharma L.P., priority 2014, dated 2020)
